# Experimental data reported in patent US20220153745A1, “DISUBSTITUTED BENZOTHIENYL-PYRROLOTRIAZINES AND THEIR USE AS FGFR KINASE INHIBITORS” (Bayer Intellectual Property GmbH, priority 2011, published 2022).
# Where a name gives a salt, the structure may show the parent alone.
# Molecular target: T1, mTOR (Homo sapiens, UniProt P42345)
# T1 construct: human mTOR amino acids from 1360 to 2549; purchased Invitrogen 4753; host or cells: insect cells
# Test: mTOR kinase assay (TR-FRET, for comparative purposes)
# Format: biochemical
# Details: mean inhibition at 1 μM test compound, 40 μM ATP
# T1 sequence (P42345 1360-2549): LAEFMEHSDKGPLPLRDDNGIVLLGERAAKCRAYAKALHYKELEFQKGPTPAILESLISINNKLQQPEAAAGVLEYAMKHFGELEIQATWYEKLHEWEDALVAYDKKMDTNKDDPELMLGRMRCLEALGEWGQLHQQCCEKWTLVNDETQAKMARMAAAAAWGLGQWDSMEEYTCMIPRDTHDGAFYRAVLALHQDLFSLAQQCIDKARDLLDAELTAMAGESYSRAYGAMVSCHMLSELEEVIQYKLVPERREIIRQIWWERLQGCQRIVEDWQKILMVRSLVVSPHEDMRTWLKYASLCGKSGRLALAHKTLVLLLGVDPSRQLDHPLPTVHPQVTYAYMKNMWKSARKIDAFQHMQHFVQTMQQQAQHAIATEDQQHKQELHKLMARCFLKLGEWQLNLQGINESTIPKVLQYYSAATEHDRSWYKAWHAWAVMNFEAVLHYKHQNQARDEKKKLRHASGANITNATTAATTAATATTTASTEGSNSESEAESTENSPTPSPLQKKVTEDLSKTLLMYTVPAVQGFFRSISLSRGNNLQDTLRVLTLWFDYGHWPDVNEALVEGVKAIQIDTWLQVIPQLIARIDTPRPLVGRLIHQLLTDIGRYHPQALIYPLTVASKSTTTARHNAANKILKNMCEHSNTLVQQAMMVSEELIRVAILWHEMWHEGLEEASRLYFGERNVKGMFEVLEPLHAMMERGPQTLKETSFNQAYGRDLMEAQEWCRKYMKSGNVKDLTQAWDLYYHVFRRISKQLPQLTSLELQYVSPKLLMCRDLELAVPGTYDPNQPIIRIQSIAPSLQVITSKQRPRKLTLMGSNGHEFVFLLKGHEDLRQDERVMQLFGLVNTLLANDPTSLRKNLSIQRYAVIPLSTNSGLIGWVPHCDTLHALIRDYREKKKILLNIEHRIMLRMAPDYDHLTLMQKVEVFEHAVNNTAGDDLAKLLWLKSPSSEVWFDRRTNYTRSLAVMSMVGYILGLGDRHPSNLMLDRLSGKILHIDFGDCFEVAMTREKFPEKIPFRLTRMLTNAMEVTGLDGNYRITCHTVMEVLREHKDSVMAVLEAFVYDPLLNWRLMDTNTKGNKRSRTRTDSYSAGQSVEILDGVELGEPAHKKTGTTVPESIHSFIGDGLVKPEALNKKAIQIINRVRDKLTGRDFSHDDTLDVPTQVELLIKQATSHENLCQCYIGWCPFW
row,SMILES,mTOR % inhibition @ 1 μM
1,"COCc1c(-c2cc3cc(C)cc(OC)c3s2)c2c(N)ncnn2c1CN1CCNC(=O)C1.Cl.Cl [Example 2, 4-{[4-Amino-6-(methoxymethyl)-5-(7-methoxy-5-methyl-1-benzothiophen-2-yl)pyrrolo[2,1-f][1,2,4]triazin-7-yl]methyl}piperazin-2-one dihydrochloride]",7.2%

# Same assay, conditions: read-out: mTOR % inhibition @ 1 μM, mean inhibition at 1 μM test compound, 40 μM ATP
row,SMILES,inhibition at 1 µM
1,"COc1cc(C)cc2cc(-c3c(CN4CCCC(O)C4)c(CN4CCNCC4)n4ncnc(N)c34)sc12 (racemic) [Example 40, rac-1-{[4-Amino-5-(7-methoxy-5-methyl-1-benzothiophen-2-yl)-7-(piperazin-1-ylmethyl)pyrrolo[2,1-f][1,2,4]triazin-6-yl]methyl}piperidin-3-ol trihydrochloride]",0.1%
2,"COCc1c(-c2cc3cc(C)cc(OC)c3s2)c2c(N)ncnn2c1CN1CCNC(=O)C1 [Example 1, 4-{[4-Amino-6-(methoxymethyl)-5-(7-methoxy-5-methyl-1-benzothiophen-2-yl)pyrrolo[2,1-f]-[1,2,4]triazin-7-yl]methyl}piperazin-2-one]",8.7%
3,"CCOCc1c(-c2cc3cc(C)cc(OC)c3s2)c2c(N)ncnn2c1CN1CCNC(=O)C1 [Example 5, 4-{[4-Amino-6-(ethoxymethyl)-5-(7-methoxy-5-methyl-1-benzothiophen-2-yl)pyrrolo[2,1-f][1,2,4]-triazin-7-yl]methyl}piperazin-2-one]",9.7%
4,"CCOCc1c(-c2cc3cc(C)cc(OC)c3s2)c2c(N)ncnn2c1CN1CCNC(=O)C1 [Example 6, 4-{[4-Amino-6-(ethoxymethyl)-5-(7-methoxy-5-methyl-1-benzothiophen-2-yl)pyrrolo[2,1-f][1,2,4]-triazin-7-yl]methyl}piperazin-2-one dihydrochloride]",0.3%
5,"CCOCc1c(-c2cc3cc(C)cc(OC)c3s2)c2c(N)ncnn2c1CN[C@@H]1CCNC1=O [Example 7, (3R)-3-({[4-Amino-6-(ethoxymethyl)-5-(7-methoxy-5-methyl-1-benzothiophen-2-yl)pyrrolo[2,1-f]-[1,2,4]triazin-7-yl]methyl}amino)pyrrolidin-2-one dihydrochloride]",3.1%
6,"CCOCc1c(-c2cc3cc(C)cc(OC)c3s2)c2c(N)ncnn2c1CN[C@@H]1CCNC1=O [Example 8, (3R)-3-({[4-Amino-6-(ethoxymethyl)-5-(7-methoxy-5-methyl-1-benzothiophen-2-yl)pyrrolo[2,1-f]-[1,2,4]triazin-7-yl]methyl}amino)pyrrolidin-2-one]",7.8%
7,"CCOCc1c(-c2cc3cc(C)cc(OC)c3s2)c2c(N)ncnn2c1CN1CCOCC1 [Example 10, 6-(Ethoxymethyl)-5-(7-methoxy-5-methyl-1-benzothiophen-2-yl)-7-(morpholin-4-ylmethyl)pyrrolo[2,1-f][1,2,4]triazin-4-amine]",6%
8,"COc1cc(C)cc2cc(-c3c(CO)c(CN4CCNCC4)n4ncnc(N)c34)sc12 [Example 12, [4-Amino-5-(7-methoxy-5-methyl-1-benzothiophen-2-yl)-7-(piperazin-1-ylmethyl)pyrrolo[2,1-f]-[1,2,4]triazin-6-yl]methanol bis(formiate)]",25.8%
9,"COCc1c(-c2cc3cc(C)cc(OC)c3s2)c2c(N)ncnn2c1CN1CCNCC1 [Example 17, 6-(Methoxymethyl)-5-(7-methoxy-5-methyl-1-benzothiophen-2-yl)-7-(piperazin-1-ylmethyl)pyrrolo[2,1-f][1,2,4]triazin-4-amine formiate]",6.7%
10,"CCOCc1c(-c2cc3cc(C)cc(OC)c3s2)c2c(N)ncnn2c1CN1CCNCC1 [Example 19, 6-(Ethoxymethyl)-5-(7-methoxy-5-methyl-1-benzothiophen-2-yl)-7-(piperazin-1-ylmethyl)pyrrolo[2,1-f][1,2,4]triazin-4-amine dihydrochloride]",17.6%
11,"CCOCc1c(-c2cc3cc(C)cc(OC)c3s2)c2c(N)ncnn2c1CN1CCN(C(C)=O)CC1 [Example 20, 1-(4-{[4-Amino-6-(ethoxymethyl)-5-(7-methoxy-5-methyl-1-benzothiophen-2-yl)pyrrolo[2,1-f]-[1,2,4]triazin-7-yl]methyl}piperazin-1-yl)ethanone]",31.3%
12,"CCCCOCc1c(-c2cc3cc(C)cc(OC)c3s2)c2c(N)ncnn2c1CN1CCNCC1 [Example 23, 6-(Butoxymethyl)-5-(7-methoxy-5-methyl-1-benzothiophen-2-yl)-7-(piperazin-1-ylmethyl)pyrrolo[2,1-f][1,2,4]triazin-4-amine formiate]",11.6%
13,"CCCOCc1c(-c2cc3cc(C)cc(OC)c3s2)c2c(N)ncnn2c1CN1CCNCC1 [Example 24, 5-(7-Methoxy-5-methyl-1-benzothiophen-2-yl)-7-(piperazin-1-ylmethyl)-6-(propoxymethyl)pyrrolo[2,1-f][1,2,4]triazin-4-amine bis(formiate)]",6.3%
14,"COc1cc(C)cc2cc(-c3c(COCC4CC4)c(CN4CCNCC4)n4ncnc(N)c34)sc12 [Example 25, 6-[(Cyclopropylmethoxy)methyl]-5-(7-methoxy-5-methyl-1-benzothiophen-2-yl)-7-(piperazin-1-ylmethyl)pyrrolo[2,1-f][1,2,4]triazin-4-amine bis(formiate)]",3.5%
15,"COc1cc(C)cc2cc(-c3c(COC(C)C)c(CN4CCNCC4)n4ncnc(N)c34)sc12 [Example 27, 6-(Isopropoxymethyl)-5-(7-methoxy-5-methyl-1-benzothiophen-2-yl)-7-(piperazin-1-ylmethyl)pyrrolo[2,1-f][1,2,4]triazin-4-amine formiate]",5.9%
16,"COc1cc(C)cc2cc(-c3c(COCC(F)(F)F)c(CN4CCNCC4)n4ncnc(N)c34)sc12 [Example 29, 5-(7-Methoxy-5-methyl-1-benzothiophen-2-yl)-7-(piperazin-1-ylmethyl)-6-[(2,2,2-trifluoroethoxy)methyl]pyrrolo[2,1-f][1,2,4]triazin-4-amine formiate]",28.5%
17,"COC(=O)COCc1c(-c2cc3cc(C)cc(OC)c3s2)c2c(N)ncnn2c1CN1CCNCC1 [Example 31, Methyl {[4-amino-5-(7-methoxy-5-methyl-1-benzothiophen-2-yl)-7-(piperazin-1-ylmethyl)pyrrolo[2,1-f][1,2,4]triazin-6-yl]methoxy}acetate]",16.3%
18,"COc1cc(C)cc2cc(-c3c(COCC(=O)O)c(CN4CCNCC4)n4ncnc(N)c34)sc12 [Example 32, {[4-Amino-5-(7-methoxy-5-methyl-1-benzothiophen-2-yl)-7-(piperazin-1-ylmethyl)pyrrolo[2,1-f][1,2,4]triazin-6-yl]methoxy}acetic acid]",1.6%
19,"COc1cc(C)cc2cc(-c3c(COCC(N)=O)c(CN4CCNCC4)n4ncnc(N)c34)sc12 [Example 33, 2-{[4-Amino-5-(7-methoxy-5-methyl-1-benzothiophen-2-yl)-7-(piperazin-1-ylmethyl)pyrrolo[2,1-f][1,2,4]triazin-6-yl]methoxy}acetamide]",0.9%
20,"COc1cc(C)cc2cc(-c3c(COc4ccccc4)c(CN4CCNCC4)n4ncnc(N)c34)sc12 [Example 35, 5-(7-Methoxy-5-methyl-1-benzothiophen-2-yl)-6-(phenoxymethyl)-7-(piperazin-1-ylmethyl)pyrrolo[2,1-f][1,2,4]triazin-4-amine bis(formiate)]",1.4%
21,"CNCc1c(-c2cc3cc(C)cc(OC)c3s2)c2c(N)ncnn2c1CN1CCNCC1 [Example 36, 5-(7-Methoxy-5-methyl-1-benzothiophen-2-yl)-6-[(methylamino)methyl]-7-(piperazin-1-ylmethyl)pyrrolo[2,1-f][1,2,4]triazin-4-amine trihydrochloride]",14.4%
22,"COc1cc(C)cc2cc(-c3c(CN(C)C)c(CN4CCNCC4)n4ncnc(N)c34)sc12 [Example 37, 6-[(Dimethylamino)methyl]-5-(7-methoxy-5-methyl-1-benzothiophen-2-yl)-7-(piperazin-1-ylmethyl)pyrrolo[2,1-f][1,2,4]triazin-4-amine trihydrochloride]",8.6%
23,"CCN(CC)Cc1c(-c2cc3cc(C)cc(OC)c3s2)c2c(N)ncnn2c1CN1CCNCC1 [Example 43, 6-[(Diethylamino)methyl]-5-(7-methoxy-5-methyl-1-benzothiophen-2-yl)-7-(piperazin-1-ylmethyl)pyrrolo[2,1-f][1,2,4]triazin-4-amine trihydrochloride]",10.1%
24,"COc1cc(C)cc2cc(-c3c(CNCC(=O)O)c(CN4CCNCC4)n4ncnc(N)c34)sc12 [Example 48, N-{[4-Amino-5-(7-methoxy-5-methyl-1-benzothiophen-2-yl)-7-(piperazin-1-ylmethyl)pyrrolo[2,1-f]-[1,2,4]triazin-6-yl]methyl}glycine trihydrochloride]",4.1%
25,"COc1cc(C)cc2cc(-c3c(CN4CCNC(=O)C4)c(CN4CCN(C=O)CC4)n4ncnc(N)c34)sc12 [Example 58, 4-({4-Amino-5-(7-methoxy-5-methyl-1-benzothiophen-2-yl)-6-[(3-oxopiperazin-1-yl)methyl]pyrrolo[2,1-f][1,2,4]triazin-7-yl}methyl)piperazine-1-carbaldehyde formiate]",4%
26,"COc1cc(C)cc2cc(-c3c(CNC(C)=O)c(CN4CCN(C=O)CC4)n4ncnc(N)c34)sc12 [Example 65, N-({4-Amino-7-[(4-formylpiperazin-1-yl)methyl]-5-(7-methoxy-5-methyl-1-benzothiophen-2-yl)pyrrolo[2,1-f][1,2,4]triazin-6-yl}methyl)acetamide formiate]",13.9%
27,"COc1cc(C)cc2cc(-c3c(CNC(C)=O)c(CN4CCN(C(C)=O)CC4)n4ncnc(N)c34)sc12 [Example 66, N-({7-[(4-Acetylpiperazin-1-yl)methyl]-4-amino-5-(7-methoxy-5-methyl-1-benzothiophen-2-yl)pyrrolo[2,1-f][1,2,4]triazin-6-yl}methyl)acetamide]",15.8%
28,"COCc1c(-c2cc3cc(C)cc(OC)c3s2)c2c(N)ncnn2c1C#N [Example 69, 4-Amino-6-(methoxymethyl)-5-(7-methoxy-5-methyl-1-benzothiophen-2-yl)pyrrolo[2,1-f][1,2,4]-triazine-7-carbonitrile]",8.7%
